# PMC3748812 (Angewandte Chemie (International ed. in English), 2013)
# How the values were obtained:
# Assay type in all cases: biochemical
# [1] = target: T1, ethylbenzene dehydrogenase (EbDH) (Aromatoleum aromaticum, UniProt Q5P5I0); experiment: inhibition of ethylbenzene-dependent activity; conditions: substrate ethylbenzene
# [2] = target: T1, ethylbenzene dehydrogenase (EbDH); experiment: ethylbenzene hydroxylation activity assay; conditions: native substrate; Km in text is cited from an earlier paper
# [3] = target: T1, ethylbenzene dehydrogenase (EbDH); experiment: inhibition of ethylbenzene-dependent activity, dose response; conditions: substrate ethylbenzene; preincubated with inhibitor
SMILES,IC50 [3] [µM],other results
CCn1ccnc1 [N-ethylimidazole],–,IC50 [1]: 2.2 mM
CCc1ccccc1 [ethylbenzene],–,ethylbenzene hydroxylation activity assay [2]: Nonlinear plots of the remaining ethylbenzene-dependent activity of EbDH
"CCN1BC=CC=C1 [N-ethyl-1,2-azaborine]",2.8,–
"CCB1C=CC=CN1 [B-ethyl-1,2-azaborine]",100,–
